System: strained rumen fluids
Test: In vitro incubation of sheep rumen fluid with ground diet: formation of methane and VFA
Type: cell-based
Design: Methane production / Total VFA: unit not given here
Details: for Effect on the formation of VFA (in words) / Effect on the formation of methane (in words): in vitro, versus control
Experimental: The efficacy of some essential oil compounds obtainable from plants was tested regarding their influence on the formation of methane and VFA in an in vitro system.
According to the test 200 mg of a ground diet, containing 50% hay, 30% barley, 9.5% molasses, 10% fishmeal and 0.5% vitamins, was added to wheaton bottles. To a triplicate of bottles containing the diet, 0.6 ml of a dissolution of one of the essential oil compounds mentioned in the table below, into propylene glycol was added to each bottle.
Three sheep were fed on the ground diet and strained rumen fluids in amounts of 500 ml were mixed with 1000 ml of Colemans Simplex buffer. The buffer had the following composition.
30 ml of the combined rumen fluid and the buffer were then introduced into the bottles, and their contents were incubated under CO2 at 39° C. for 24 hours. The methane production and the total amount of VFA was then measured. […]

[1] = 0.6 ml dissolution in propylene glycol per bottle, 200 mg diet, 30 ml rumen fluid/buffer, under CO2, 39° C., 24 hours

Row | Compound | Effect on the formation of VFA (in words) | Effect on the formation of methane (in words) | Methane production [1] | Total VFA [1]
1 | c1ccc2ncccc2c1 [Quinoline] | promoting effect | methane-reducing effect |  | 
2 | Cc1ccc(C(C)C)c(O)c1 [Thymol] | notable reducing effect | strong methane-reducing effect |  | 
3 | Vanilla | promoting effect | methane-reducing effect | 1055 | 1300

Source: patent US7763273B2, “Method for reducing methane production emanating from the digestive activities of an animal” (DSM IP Assets B.V., priority 2002, dated 2010)
